From patent US20220087996A1, “Histone acetylase p300 inhibitor and use thereof” (HINOVA PHARMACEUTICALS INC., priority 2018, published 2022) come the findings set out here.

Structures are written as SMILES. Like-named read-outs stand apart in the source and are kept apart here. Bounds are passed on as bounds.

The subject of one test is MOLM-16. Nature of the test: Inhibition of proliferation of MOLM-16 cells. It is filed as cell-based. The settings on record: MOLM16; Leukemia cell line MOLM-16; read-out: IC50 against MOLM-16. As for the experimental part: (§1) 1) CWR22RV1 cells were subcultured in cell culture medium, and the cells in good growth condition were seeded in a 96-well plate, 80 μL for each well, and the cell number in each well was 1500. The plate was incubated overnight in a 37° C., 5% CO2 cell incubator. 2) The drug was prepared as 30 mM stock solution with dimethyl sulfoxide (DMSO). Prior to use, the stock solution was diluted 3 times with DMSO, and then further diluted as 3-fold gradient to obtain 9 concentration gradients. Then, each concentration of compound was diluted 200 times with the culture solution (ensuring that the DMSO concentration in the culture system was 0.1%), and two replicate wells were set for each concentration. 20 μL of diluted compound solution was added to the cell culture well (with final concentrations of 10 μM, 3.3 μM. 1.1 μM . . . ), and the plate was gently shaken to mix. In addition, 3 negative control wells containing only cells and 3 blank control wells containing only culture medium were included (6 wells were each added 20 μL DMSO diluted 200 times with culture medium). 2. Result detection: (1) After culturing for 6 days, 10 μL CCK-8 was added to each well, and the plate was continually cultured in a 37° C., 5% CO2 cell incubator for 2.5 h. (2) The absorbance (OD value) was detected at 450 nm using a multifunctional microplate reader. (3) The data were analyzed by Dose-response-inhibition equation in the software GraphPad Prism6, and the IC50 value was obtained.
(§2) Using the same method as Experimental example 2, CWR22RV1 cells were replaced with tumor cells in Table 3, and the IC50 (nM) of the compound according to the present invention against the activity of these tumor cells was tested and calculated.

The next test concerns RL. Nature of the test: Inhibition of proliferation of RL cells. The format is cell-based. The note with it: Homo sapiens; Lymphoma cell line RL; read-out: IC50 against RL. As for the experimental part:
as §1, §2

A further test concerns CWR22RV1 cells. Nature of the test: Inhibition of proliferation of CWR22RV1 cells (CCK-8). It is filed as cell-based, human. The settings on record: Homo sapiens, CWR22Rv1, 144 h, 6 days culture. In outline: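 CWR22RV1 cells (1500/well) were exposed to 9 three-fold compound concentrations (top final 10 μM, 0.1% DMSO) for 6 days. CCK-8 was added for 2.5 h, and absorbance was read at 450 nm. IC50 was fitted with a dose-response-inhibition equation.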

For a further test, the system named is VCAP. Nature of the test: Inhibition of proliferation of VCAP cells. The format is cell-based. The note with it: Homo sapiens; Prostate cancer cell line VCAP; read-out: IC50 against VCAP. As for the experimental part: as §1, §2
The test system of another test is HEL. Nature of the test: Inhibition of proliferation of HEL cells. The format is cell-based. The note with it: Homo sapiens; Leukemia cell line HEL; read-out: IC50 against HEL. As for the experimental part: as §1, §2
Another test has as its system MT-2. Nature of the test: Inhibition of proliferation of MT-2 cells. The format is cell-based. The settings on record: Homo sapiens, MT2; Leukemia cell line MT-2; read-out: IC50 against MT-2. As for the experimental part: as §1, §2
The test system of a further test is DU4475. Nature of the test: Inhibition of proliferation of DU4475 cells. It is filed as cell-based. The settings on record: Homo sapiens, DU-4475; Breast cancer cell line DU4475; read-out: IC50 against DU4475. As for the experimental part:
as §1, §2

In the next test the test system is MLMA. Nature of the test: Inhibition of proliferation of MLMA cells. It is filed as cell-based. The settings on record: Lymphoma cell line MLMA; read-out: IC50 against MLMA. The protocol:
as §1, §2

A further test relates to LNCAP. Nature of the test: Inhibition of proliferation of LNCAP cells. The format is cell-based. The settings on record: Homo sapiens; Prostate cancer cell line LNCAP; read-out: IC50 against LNCAP. As for the experimental part: as §1, §2
A further test relates to BT-474. Nature of the test: Inhibition of proliferation of BT-474 cells. The format is cell-based. The settings on record: Homo sapiens; Breast cancer cell line BT-474; read-out: IC50 against BT-474. The protocol: as §1, §2
The test system of another test is TALL-1. Nature of the test: Inhibition of proliferation of TALL-1 cells. The settings on record: Homo sapiens; Leukemia cell line TALL-1; read-out: IC50 against TALL-1. It is filed as cell-based. The protocol:
as §1, §2

A further test concerns EVSA-T. Nature of the test: Inhibition of proliferation of EVSA-T cells. The note with it: Homo sapiens; Breast cancer cell line EVSA-T; read-out: IC50 against EVSA-T. It is filed as cell-based. The protocol: as §1, §2
In the next test the test system is Z-138. Nature of the test: Inhibition of proliferation of Z-138 cells. It is filed as cell-based. The note with it: Homo sapiens; Lymphoma cell line Z-138; read-out: IC50 against Z-138. As for the experimental part:
as §1, §2

Another test concerns MOLT-4. Nature of the test: Inhibition of proliferation of MOLT-4 cells. The format is cell-based. The note with it: Homo sapiens; Leukemia cell line MOLT-4; read-out: IC50 against MOLT-4. As for the experimental part: as §1, §2
A further test has as its system ATN-1. Nature of the test: Inhibition of proliferation of ATN-1 cells. It is filed as cell-based. The settings on record: Homo sapiens; Leukemia cell line ATN-1; read-out: IC50 against ATN-1. The protocol:
as §1, §2

The test system of a further test is MAVER-1. Nature of the test: Inhibition of proliferation of MAVER-1 cells. It is filed as cell-based. The settings on record: Homo sapiens, Maver1; Lymphoma cell line MAVER-1; read-out: IC50 against MAVER-1. As for the experimental part:
as §1, §2

In a further test the test system is MDA-MB-453. Nature of the test: Inhibition of proliferation of MDA-MB-453 cells. It is filed as cell-based. The settings on record: Homo sapiens; Breast cancer cell line MDA-MB-453; read-out: IC50 against MDA-MB-453. As for the experimental part:
as §1, §2

The next test relates to KMS-11. Nature of the test: Inhibition of proliferation of KMS-11 cells. The format is cell-based. The note with it: Homo sapiens; Multiple myeloma cell line KMS-11; read-out: IC50 against KMS-11. As for the experimental part:
as §1, §2

Another test concerns LNCAP-AR. Nature of the test: Inhibition of proliferation of LNCAP-AR cells. The settings on record: Prostate cancer cell line LNCAP-AR; read-out: IC50 against LNCAP-AR. The format is cell-based. As for the experimental part: as §1, §2
A further test deals with KMS-12-PE. Nature of the test: Inhibition of proliferation of KMS-12-PE cells. The note with it: Homo sapiens; Lymphoma cell line KMS-12-PE; read-out: IC50 against KMS-12-PE. It is filed as cell-based. The protocol:
as §1, §2

Setting [1] is: read-out: IC50 against CWR22RV1 cells.
Setting [2] is: read-out: IC50 against CWR22RV1 cells (text).

With `CNC(=O)Nc1ccc2c(c1)CC[C@@]21OC(=O)N(CC(=O)N2C(C)CC[C@H]2c2cc(F)c(F)c(F)c2)C1=O` (stereo in doubt) [Example 205, 1-((R)-3′-(2-((2S,5R)-2-(3,4,5-trifluorophenyl)-5-methylpyrrolidin-1-yl)-2-oxoethyl)-2′,4′-dioxo-2,3-dihydrospiro[indene-1,5′-oxazolidine]-5-yl)-3-methylurea], the IC50 in the test on MOLM-16 was ≤ 500 nM; with RL, ≤ 500 nM; in the test on CWR22RV1 cells (setting [1]), ≤ 500 nM; with CWR22RV1 cells (setting [2]), ≤ 500 nM; in the test on VCAP, ≤ 500 nM; in the test on HEL, 500 to 2000 nM. Moreover, the IC50 in the test on MT-2 is 500 to 2000 nM; with DU4475 it was 500 to 2000 nM; in the test on MLMA it was ≤ 500 nM; in the test with LNCAP, ≤ 500 nM; with BT-474, ≤ 500 nM; in the test with TALL-1, ≤ 500 nM. For the same compound, the IC50 in the test with EVSA-T was 500 to 2000 nM; in the test with Z-138, ≤ 500 nM; in the test with MOLT-4 it was ≤ 500 nM; in the test with ATN-1, ≤ 500 nM; in the test with MAVER-1, ≤ 500 nM; in the test with MDA-MB-453, ≤ 500 nM. The IC50 is ≤ 500 nM with KMS-11, ≤ 500 nM with LNCAP-AR and 500 to 2000 nM with KMS-12-PE.

Consider `CNC(=O)Nc1cc2c(cc1F)[C@@]1(CC2)OC(=O)N(CC(=O)N2[C@@H](C)CC[C@H]2c2ccc(F)c(F)c2)C1=O` [Example 389, 1-((R)-3′-(2-((2S,5S)-2-(3,4-difluorophenyl)-5-methylpyrrolidin-1-yl)-2-oxoethyl)-6-fluoro-2′,4′-dioxo-2,3-dihydrospiro[indene-1,5′-oxazolidine]-5-yl)-3-methylurea], for which the IC50 with MOLM-16, in the test with RL, in the test on CWR22RV1 cells (setting [1]), with CWR22RV1 cells (setting [2]), in the test with VCAP and in the test with HEL was ≤ 500 nM in each case. In addition, the half-inhibitory concentration (IC50) in the test on MT-2 was ≤ 500 nM; in the test with DU4475 it was 500 to 2000 nM; in the test on MLMA, ≤ 500 nM; in the test with LNCAP, ≤ 500 nM; in the test on BT-474, ≤ 500 nM; in the test on TALL-1 it was ≤ 500 nM. The IC50 in the test with EVSA-T is 500 to 2000 nM; in the test with Z-138, ≤ 500 nM; in the test on MOLT-4 it was ≤ 500 nM; in the test on ATN-1 it was ≤ 500 nM; in the test on MAVER-1, ≤ 500 nM; in the test with MDA-MB-453, ≤ 500 nM. Further, the values for the IC50 in the test with KMS-11, with LNCAP-AR and in the test with KMS-12-PE were ≤ 500 nM, ≤ 500 nM and 500 to 2000 nM, respectively.

In the case of `CNC(=O)Nc1ccc2c(c1)CC[C@@]21OC(=O)N(CC(=O)N2[C@@H](C)CC[C@H]2c2ccc(F)c(F)c2)C1=O` [Example 201], the IC50 is ≤ 500 nM in the test with MOLM-16; ≤ 500 nM with RL; ≤ 500 nM in the test with CWR22RV1 cells (setting [1]); ≤ 500 nM with CWR22RV1 cells (setting [2]); ≤ 500 nM with VCAP; 500 to 2000 nM with HEL. In addition, the IC50 in the test on MT-2 was 500 to 2000 nM; in the test on DU4475 it was 500 to 2000 nM; with MLMA, ≤ 500 nM; in the test with LNCAP, ≤ 500 nM; in the test on BT-474, ≤ 500 nM; with TALL-1, ≤ 500 nM. Further, the IC50 is 500 to 2000 nM with EVSA-T; ≤ 500 nM in the test on Z-138; ≤ 500 nM with MOLT-4; ≤ 500 nM in the test on ATN-1; ≤ 500 nM with MAVER-1; ≤ 500 nM with MDA-MB-453. Further, the IC50 in the test with KMS-11 was ≤ 500 nM; in the test with LNCAP-AR, ≤ 500 nM; with KMS-12-PE, 500 to 2000 nM.

Broadly, the IC50 is the concentration that inhibits the measured activity by half.
